Laboratory results from patent US20220151890A1, “EFFICIENT SUNSCREEN COMPOSITIONS WITH DIETHYLAMINO HYDROXYBENZOYL HEXYL BENZOATE AND BUTYL METHOXYDIBENZOYLMETHANE” (BASF SE, priority 2019, published 2022).
Structures can show the parent of a compound that is named as a salt.

Key:
[1] = UV filter performance: wavelength of maximum absorbance of BMDBM in emollient; assay type: physicochemical; details: BMDBM dissolved in the listed emollient; UV/Vis 290 to 400nm, 1 cm cuvette
Experimental: (§1) The wavelength of maximum absorbance (,max) is an indicator to describe the performance of a UV filter molecule. It gives the wavelength at which the absorbance is at maximum. […] The UV transmission spectrum of each UV filter - emollient mixture was measured from 290 to 400nm using a UV/Vis spectrophotometer Perkin Elmer Lambda 25. Three stock solutions with a concentration of 1mM of UV filter were prepared for each mixture. Further, three dilutions of each stock solution were prepared resulting in nine measurements in total per UV filter-emollient solution. Then, all solutions were filled in UV transparent quartz cuvette of 1 cm optical path-length for UV Transmission measurements.

[2] = UV filter performance: wavelength of maximum absorbance of DHHB in emollient; assay type: physicochemical; details: DHHB dissolved in the listed emollient; UV/Vis 290 to 400nm, 1 cm cuvette
Experimental: as §1

[3] = Recovery measurements on photo stability of BMDBM (irradiated film on quartz plates, HPLC); assay type: physicochemical; details: octocrylene free sunscreen composition
Experimental: Recovery measurements on photo stability of BMDBM
The sunscreen and UV filter compositions as defined above are applied on roughened quartz plates (2 μl/cm^2). Plates are irradiated using Atlas CPS device at different duration times (MED=Minimal Erythema Dose):
(§2) 0h (0 MED, no irradiation)
4h (20 MED). In total, four plates are prepared for each irradiation condition. After irradiation, each plate is rinsed off with tetrahydrofuran. The rinsing solution is further analyzed via HPLC to determine the recovery of BMDBM.

[4] = description of the commercial UV filter; cited from earlier work
[5] = Measurement of interfacial tension (polarity index) of emollients; assay type: physicochemical; details: interfacial tension between emollient and water, Tensimat Densimat TD2000
Excerpt: The term “polarity index” refers to non-polar or polar oils. Non-polar oils are mainly based on hydrocarbons and lack an electronegative element, such as oxygen. In contrast, polar oils contain heteroatoms that differ in electronegativity, which results in a dipole moment. However, such oils are still insoluble in water, i.e. hydrophob. The polarity index can be determined by measuring the interfacial tension between the respective oil and water.
Measurement of interfacial tension (polarity index)
Interfacial tension of the respective emollients as listed below was measured using a Tensimat Densimat TD2000.

[6] = Recovery measurements on photo stability of BEMT (irradiated film on quartz plates, HPLC); assay type: physicochemical; details: presence of BMDBM in the composition
Experimental: Recovery measurements on photo stability of BEMT
The sunscreen and UV filter compositions as defined above are applied on roughened quartz plates (2 μl/cm^2). Plates are irradiated using Atlas CPS device at different duration times:
as §2
4h (20 MED). In total, four plates are prepared for each irradiation condition. After irradiation, each plate is rinsed off with tetrahydrofuran. The rinsing solution is further analyzed via HPLC to determine the recovery of BEMT.

| SMILES | λmax values (BMDBM) [1] [nm] | λmax values (DHHB) [2] [nm] | absorption maximum [4] [nm] | polarity index [5] [mN/m] | further results |
| --- | --- | --- | --- | --- | --- |
| CC(C)OC(=O)CCCCCCCCC(=O)OC(C)C [diisopropyl sebacate] | 357 | 350 | – | – | – |
| CCCCCCOC(=O)c1ccccc1C(=O)c1ccc(N(CC)CC)cc1O [DHHB, hexyl 2-[4-(diethylamino)-2-hydroxybenzoyl]benzoate] | – | – | 354 | – | effect on photo stability of BMDBM and BEMT, in words [3]: stabilizes the UV filter BMDBM and BEMT |
| CCCCC(CC)COC(=O)c1ccc(Nc2nc(Nc3ccc(C(=O)NC(C)(C)C)cc3)nc(Nc3ccc(C(=O)OCC(CC)CCCC)cc3)n2)cc1 (stereo not drawn) [diethylhexyl-butamidotriazone, 4,4′-[[6-[[4-[[(1,1-dimethylethyl)amino]carbonyl]phenyl]amino]-1,3,5-triazin-2,4-diyl]diimino]bis-benzoic acid-bis(2-ethylhexyl)ester] | – | – | 310 | – | – |
| O=C(OCCc1ccccc1)c1ccccc1 [phenethyl benzoate] | 362 | 355 | – | 19 | – |
| CC(C)OC(=O)CCCCC(=O)OC(C)C [diisopropyl adipate] | 357 | 351 | – | 12 | – |
| CCOC(=O)CC(O)(CC(=O)OCC)C(=O)OCC [triethyl citrate] | 359 | 353 | – | – | – |
| CCCCOC(=O)CCCCC(=O)OCCCC [dibutyl adipate] | – | 351 | – | – | – |
| CCCCCCCCCCC(CO)CCCCCCCC (stereo not drawn) [octyldodecanol] | 357 | 349 | – | 25 | – |
| COc1ccc(C(=O)CC(=O)c2ccc(C(C)(C)C)cc2)cc1 [BMDBM, 1-(4-(1,1-dimethylethyl)phenyl)-3-(4-methoxyphenyl)propane-1,3-dione] | – | – | 357 | – | effect on stability of BEMT, in words [6]: destabilizes the UV filter BEMT |
| CCCCCCCCCCCCCC(=O)OC(C)C [isopropyl myristate] | 357 | – | – | – | – |
| CCCCOC(=O)CC(O)(CC(=O)OCCCC)C(=O)OCCCC [tributyl citrate] | 359 | 352 | – | 10 | – |
| c1ccc(-c2ccc(-c3nc(-c4ccc(-c5ccccc5)cc4)nc(-c4ccc(-c5ccccc5)cc4)n3)cc2)cc1 [tris-biphenyl triazine, 2,4,6-Tris(biphenyl-4-yl)-1,3,5-triazine] | – | – | 310 | – | – |
